Test results as given in ChEMBL document CHEMBL1143317, “Efficient synthesis and biological evaluation of 1,2,9-trisubstituted 1,9-dihydro-6H-purin-6-ones” (Bioorg Med Chem Lett, 2009).
pIC50: −log10 of the molar value.

Experiments:
Assay type in all cases: functional, cell-based
HepG2 = experiment: Cytotoxicity against human HepG2 cells after 72 hrs by MTT assay; conditions: HepG2, 72 h
KB = experiment: Cytotoxicity against human KB cells after 72 hrs by MTT assay
OVCAR-3 = experiment: Cytotoxicity against human OVCAR-3 cells after 72 hrs by MTT assay; conditions: OVCAR-3, 72 h

Row | SMILES | pIC50 (HepG2) | pIC50 (KB) | pIC50 (OVCAR-3)
1 | CCCCN(CCCC)c1nc2c(ncn2-c2ccccc2)c(=O)n1-c1ccccc1 | 4.69 | 5.02 | 5.00
2 | CCNc1nc2c(ncn2-c2ccccc2)c(=O)n1-c1ccccc1 | < 4.00 | < 4.00 | < 4.00
3 | CCCCCN(CCCCC)c1nc2c(ncn2-c2ccccc2)c(=O)n1-c1ccc(Cl)cc1 | < 4.00 | 4.97 | < 4.00
4 | O=c1c2ncn(-c3ccccc3)c2nc(N2CCCCC2)n1-c1ccc(Cl)cc1 | < 4.00 | 4.14 | < 4.00
5 | CN(C)c1nc2c(ncn2-c2ccccc2)c(=O)n1-c1ccccc1 | < 4.00 | 4.08 | < 4.00
6 | CCCCNc1nc2c(ncn2-c2ccccc2)c(=O)n1-c1ccc(Cl)cc1 | 4.11 | 4.42 | 4.02
7 | CNc1nc2c(ncn2-c2ccccc2)c(=O)n1-c1ccccc1 | < 4.00 | < 4.00 | < 4.00
8 | O=c1c2ncn(-c3ccccc3)c2nc(NCc2ccccc2)n1-c1ccc(Cl)cc1 | 4.21 | 4.46 | 4.33
9 | CC(C)N(c1nc2c(ncn2-c2ccccc2)c(=O)n1-c1ccccc1)C(C)C | < 4.00 | 4.27 | < 4.00
10 | CNc1nc2c(ncn2-c2ccccc2)c(=O)n1-c1ccc(Cl)cc1 | < 4.00 | < 4.00 | < 4.00
